Data taken from the supplement of paper PMC4862054.

Tests used:
Test in all cases: normalised response (% of control), CellTiter-Glo; higher = more viable cells (100 = DMSO, 0 = benzethonium chloride kill control)
Conditions in all cases: incubation time: 72 h
CAL-148 = system: CAL-148
In short: (§1)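 Breast cancer cell lines were exposed for 72 h in 384-well plates to compound at 5 concentrations, 10-fold apart, covering a 10,000-fold range fixed for each compound. Plates were read for CellTox Green fluorescence and CellTiter-Glo luminescence and normalised to 0.1 % DMSO (100) and a positive kill control (0). Each value is the normalised signal at one concentration of the series.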

BT-549 = system: BT-549
In short: as §1

CAL-85-1 = system: CAL-85-1
In short: as §1

MDA-MB-453 = system: MDA-MB-453
In short: as §1

HDQ-P1 = system: HDQ-P1
In short: as §1

BT-474 = system: BT-474
In short: as §1

SK-BR-3 = system: SK-BR-3
In short: as §1

MDA-MB-468 = system: MDA-MB-468
In short: as §1

MDA-MB-231 = system: MDA-MB-231
In short: as §1

HCC1599 = system: HCC1599
In short: as §1

CAL-120 = system: CAL-120
In short: as §1

HCC1143 = system: HCC1143
In short: as §1

MFM-223 = system: MFM-223
In short: as §1

MDA-MB-436 = system: MDA-MB-436
In short: as §1

MCF-10A = system: MCF-10A
In short: as §1

DU-4475 = system: DU-4475
In short: as §1

HCC1937 = system: HCC1937
In short: as §1

Hs578T = system: Hs578T
In short: as §1

CAL-51 = system: CAL-51
In short: as §1

Row | Structure (SMILES) | normalised response (CAL-148) [%] | normalised response (BT-549) [%] | normalised response (CAL-85-1) [%] | normalised response (MDA-MB-453) [%] | normalised response (HDQ-P1) [%] | normalised response (BT-474) [%] | normalised response (SK-BR-3) [%] | normalised response (MDA-MB-468) [%] | normalised response (MDA-MB-231) [%] | normalised response (HCC1599) [%] | normalised response (CAL-120) [%] | normalised response (HCC1143) [%] | normalised response (MFM-223) [%] | normalised response (MDA-MB-436) [%] | normalised response (MCF-10A) [%] | normalised response (DU-4475) [%] | normalised response (HCC1937) [%] | normalised response (Hs578T) [%] | normalised response (CAL-51) [%]
1 | Nc1ncnc2c1c(COc1cccc(Cl)c1)nn2C1CCOCC1 (1 nM) | 105 | 104 | 95.7 | 102 | 100 | 102 | 109 | 94.7 | 103 | 107 | 95.4 | 106 | 102 | 102 | 114 | 101 | 100 | 104 | 105
2 | Nc1ncnc2c1c(COc1cccc(Cl)c1)nn2C1CCOCC1 (10 nM) | 115 | 98.2 | 101 | 104 | 99.1 | 101 |  | 106 | 107 | 101 | 96.6 | 105 | 105 | 105 | 114 | 105 | 97.7 | 108 | 94.8
3 | COc1ccc(-c2ccc3c(N4CCOC[C@@H]4C)nc(N4CCOC[C@@H]4C)nc3n2)cc1CO [AZD8055] (1 nM) | 89.3 | 98.2 | 93.5 | 104 | 95.2 | 90.8 | 87.1 | 90.5 | 95.2 | 108 | 90.3 | 86.8 | 86.8 | 89.3 | 85.7 | 95.5 | 91 | 93.7 | 116
4 | COc1ccc(-c2ccc3c(N4CCOC[C@@H]4C)nc(N4CCOC[C@@H]4C)nc3n2)cc1CO [AZD8055] (10 nM) | 82.5 | 77.9 | 85.4 | 79.3 | 74.6 | 84.8 | 53.5 | 80.1 | 88 | 98.3 | 81.1 | 86.8 | 77.8 | 76.5 | 87 | 92 | 84.2 | 92.2 | 92.8
5 | C[C@]12CC[C@H](O)CC1=CC[C@@H]1[C@@H]2CC[C@]2(C)C(c3cccnc3)=CC[C@@H]12 [Abiraterone] (0.5 nM) | 108 | 105 | 106 | 114 | 106 | 104 | 106 | 109 | 105 | 119 | 97.6 | 94.7 | 98 | 94.7 | 102 | 94.5 | 96.2 | 102 | 95.7
6 | C[C@]12CC[C@H](O)CC1=CC[C@@H]1[C@@H]2CC[C@]2(C)C(c3cccnc3)=CC[C@@H]12 [Abiraterone] (5 nM) | 91.8 | 95.6 | 110 | 116 | 99.5 | 107 | 111 | 99 | 106 | 116 | 95.7 | 101 | 97.5 | 103 | 102 | 109 | 94.6 | 104 | 136
7 | CN(C)CCN1C(=O)c2cccc3cc(N)cc(c23)C1=O [Amonafide] (1 nM) | 99.9 | 101 | 101 | 105 | 97.3 | 104 | 103 | 94.7 | 102 | 102 | 99.7 | 94 | 103 | 100 | 88.6 | 101 | 99.3 | 97.6 | 120
8 | CN(C)CCN1C(=O)c2cccc3cc(N)cc(c23)C1=O [Amonafide] (10 nM) | 86.5 | 100 | 98 | 98.6 | 100 | 98.7 |  | 93 | 102 | 95 | 97 | 101 | 99.8 | 103 | 97.6 | 99.7 | 96.9 | 99.8 | 123
9 | CC(C)(C#N)c1cc(Cn2cncn2)cc(C(C)(C)C#N)c1 [Anastrozole] (1 nM) | 94.8 | 109 | 102 | 112 | 103 | 100 | 111 | 102 | 96.7 | 110 | 101 | 95.5 | 106 | 95.2 | 102 | 105 | 99.7 | 99.3 | 89.9
10 | CC(C)(C#N)c1cc(Cn2cncn2)cc(C(C)(C)C#N)c1 [Anastrozole] (10 nM) | 99.3 | 99 | 94.9 | 104 | 94.3 | 101 | 105 | 98.8 | 100 | 102 | 96.2 | 103 | 104 | 99.4 | 110 | 104 | 100 | 105 | 93.7
11 | CC(C)c1c(C(=O)Nc2ccccc2)c(-c2ccccc2)c(-c2ccc(F)cc2)n1CC[C@@H](O)C[C@@H](O)CC(=O)O [Atorvastatin] (1 nM) | 103 | 96.9 | 98.7 | 107 | 95.9 | 94 | 103 | 94.2 | 95.2 | 96.5 | 92.8 | 98.2 | 97.6 | 95.5 | 99.1 | 100 | 98.1 | 98.9 | 89.8
12 | CC(C)c1c(C(=O)Nc2ccccc2)c(-c2ccccc2)c(-c2ccc(F)cc2)n1CC[C@@H](O)C[C@@H](O)CC(=O)O [Atorvastatin] (10 nM) | 101 | 90 | 98.9 | 104 | 101 | 100 | 102 | 104 | 96.9 | 104 | 96.8 | 103 | 102 | 96.5 | 100 | 98.7 | 99.7 | 101 | 76.1
13 | O=C(O)CCCc1ccc(N(CCCl)CCCl)cc1 [Chlorambucil] (1 nM) | 96.8 | 102 | 99.4 | 118 | 101 | 102 | 95.6 | 96.9 | 101 | 98.4 | 97.1 | 102 | 102 | 132 | 100 | 102 | 102 | 107 | 128
14 | O=C(O)CCCc1ccc(N(CCCl)CCCl)cc1 [Chlorambucil] (10 nM) | 101 | 102 | 108 | 101 | 99.7 | 99.1 |  | 101 | 106 | 97.8 | 97.2 | 102 | 108 | 104 | 93.6 | 101 | 98.8 | 103 | 95.2
15 | Cn1c(=O)n(-c2ccc(C(C)(C)C#N)cc2)c2c3cc(-c4cnc5ccccc5c4)ccc3ncc21 [Dactolisib] (0.1 nM) | 102 | 100 | 101 | 109 | 102 | 104 | 111 | 110 | 105 | 122 | 97.4 | 97.4 | 108 | 99.6 | 105 | 103 | 98.8 | 102 | 107
16 | Cn1c(=O)n(-c2ccc(C(C)(C)C#N)cc2)c2c3cc(-c4cnc5ccccc5c4)ccc3ncc21 [Dactolisib] (1 nM) | 116 | 101 | 101 | 110 | 95 | 106 |  | 103 | 107 | 95.8 | 90.2 | 98.5 | 108 | 95.8 | 113 | 107 | 98.7 | 95.7 | 83.4
17 | CO[C@H]1C[C@@H]2CC[C@@H](C)[C@@](O)(O2)C(=O)C(=O)N2CCCC[C@H]2C(=O)O[C@H]([C@H](C)C[C@@H]2CC[C@@H](OCCO)[C@H](OC)C2)CC(=O)[C@H](C)/C=C(\C)[C@@H](O)[C@@H](OC)C(=O)[C@H](C)C[C@H](C)/C=C/C=C/C=C/1C [Everolimus] (0.01 nM) | 90.1 | 103 | 95.3 | 99.3 | 96.1 | 103 | 93.4 | 105 | 98.9 | 107 | 97.8 | 93 | 95.3 | 95.7 | 93.6 | 98.7 | 95.9 | 91.2 | 132
18 | C/C(=C\c1csc(C)n1)[C@@H]1C[C@@H]2O[C@]2(C)CCC[C@H](C)[C@H](O)[C@@H](C)C(=O)C(C)(C)[C@@H](O)CC(=O)O1 [Patupilone] (1 nM) | 106 | 97.3 | 105 | 107 | 97.3 | 104 |  | 109 | 107 | 117 | 103 | 111 | 101 | 108 | 106 | 106 | 103 | 104 | 99.2
19 | CC[C@]1(O)C[C@H]2CN(CCc3c([nH]c4ccccc34)[C@@](C(=O)OC)(c3cc4c(cc3OC)N(C=O)[C@H]3[C@@](O)(C(=O)OC)[C@H](OC(C)=O)[C@]5(CC)C=CCN6CC[C@]43[C@@H]65)C2)C1 [Vincristine] (1 nM) | 110 | 87.6 | 102 | 104 | 97.6 | 100 |  | 95.3 | 99.4 | 113 | 96.4 | 104 | 104 | 106 | 104 | 106 | 96.3 | 105 | 91.4
